ChEMBL document CHEMBL3885881, “DrugMatrix”

Organism: Rattus norvegicus
Test: DrugMatrix - Regimen: Daily Repeat
Type: toxicity, organism-based, Sprague-Dawley
Parameters: regimen Daily Repeat, gender Male, age 6-8 weeks
Conditions: in vivo, po, route oral GAVAGE, vehicle 100 % WATER; for ABSOLUTE BASOPHIL / ABSOLUTE EOSINOPHIL / ABSOLUTE LYMPHOCYTE / ABSOLUTE MONOCYTE / ABSOLUTE SEGMENTED NEUTROPHIL / BASOPHIL / EOSINOPHIL / ERYTHROCYTE COUNT / HEMATOCRIT / HEMOGLOBIN / LEUKOCYTE COUNT / LYMPHOCYTE / MEAN CORPUSCULAR HEMOGLOBIN / MEAN CORPUSCULAR HEMOGLOBIN CONCENTRATION / MEAN CORPUSCULAR VOLUME / MONOCYTE / NEUTROPHIL / NUCLEATED RED BLOOD CELLS / PLATELET COUNT: tissue Blood; for ALANINE AMINOTRANSFERASE / ALBUMIN / ALKALINE PHOSPHATASE / ASPARTATE AMINOTRANSFERASE / BLOOD UREA NITROGEN / CARBON DIOXIDE / CHLORIDE / CHOLESTEROL / CREATINE PHOSPHOKINASE / CREATININE / GLUCOSE / LACTATE DEHYDROGENASE / LIPASE / PHOSPHORUS / POTASSIUM / SODIUM / TOTAL BILIRUBIN / TOTAL PROTEIN / URIC ACID: tissue Plasma
[1] = 0 mg/kg, 72 h, dose level Control, time 3 day
[2] = 0 mg/kg, 120 h, dose level Control, time 5 day
[3] = 5 mg/kg, 72 h, dose level Low, time 3 day

## COc1cc2nc(N3CCN(C(=O)C4COc5ccccc5O4)CC3)nc(N)c2cc1OC (centres undefined) [DOXAZOSIN]
[1]
  ABSOLUTE BASOPHIL: 0 CELLS/uL
  ABSOLUTE EOSINOPHIL: 86.33 CELLS/uL
  ABSOLUTE LYMPHOCYTE: 12090.17 CELLS/uL
  ABSOLUTE MONOCYTE: 166.67 CELLS/uL
  ABSOLUTE SEGMENTED NEUTROPHIL: 1090.17 CELLS/uL
  BASOPHIL: 0%
  EOSINOPHIL: 0.67%
  ERYTHROCYTE COUNT: 5.57 x10E6/uL
  HEMATOCRIT: 35.33%
  HEMOGLOBIN: 13.83 G/DL
  LEUKOCYTE COUNT: 13.43 x10E3/uL
  LYMPHOCYTE: 89.83%
  MEAN CORPUSCULAR HEMOGLOBIN: 24.88 pg
  MEAN CORPUSCULAR HEMOGLOBIN CONCENTRATION: 39.15 G/DL
  MEAN CORPUSCULAR VOLUME: 63.52 fL
  MONOCYTE: 1.17%
  NEUTROPHIL: 8.33%
  NUCLEATED RED BLOOD CELLS: 0 /100WBC
  PLATELET COUNT: 1181.33 x10E3/uL
  ALANINE AMINOTRANSFERASE: 48.33 u/L
  ALBUMIN: 4.1 G/DL
  ALKALINE PHOSPHATASE: 395 u/L
  ASPARTATE AMINOTRANSFERASE: 81.83 u/L
  BLOOD UREA NITROGEN: 15.83 mg/dL
  CARBON DIOXIDE: 24.17 mmol/L
  CHLORIDE: 103.83 MEQ/L
  CHOLESTEROL: 63.67 mg/dL
  CREATINE PHOSPHOKINASE: 372.83 u/L
  CREATININE: 0.18 mg/dL
  GLUCOSE: 173.83 mg/dL
  LACTATE DEHYDROGENASE: 188.33 u/L
  LIPASE: 9.5 u/L
  PHOSPHORUS: 11.95 mg/dL
  POTASSIUM: 5.99 MEQ/L
  SODIUM: 144.43 MEQ/L
  TOTAL BILIRUBIN: 0.15 mg/dL
  TOTAL PROTEIN: 5.95 G/DL
  URIC ACID: 1.82 mg/dL
[2]
  ABSOLUTE BASOPHIL: 0 CELLS/uL
  ABSOLUTE EOSINOPHIL: 26.67 CELLS/uL
  ABSOLUTE LYMPHOCYTE: 7583.83 CELLS/uL
  ABSOLUTE MONOCYTE: 131.33 CELLS/uL
  ABSOLUTE SEGMENTED NEUTROPHIL: 674.83 CELLS/uL
  BASOPHIL: 0%
  EOSINOPHIL: 0.33%
  ERYTHROCYTE COUNT: 5.78 x10E6/uL
  HEMATOCRIT: 36.48%
  HEMOGLOBIN: 14.03 G/DL
  LEUKOCYTE COUNT: 8.42 x10E3/uL
  LYMPHOCYTE: 89.83%
  MEAN CORPUSCULAR HEMOGLOBIN: 24.3 pg
  MEAN CORPUSCULAR HEMOGLOBIN CONCENTRATION: 38.52 G/DL
  MEAN CORPUSCULAR VOLUME: 63.15 fL
  MONOCYTE: 1.67%
  NEUTROPHIL: 8.17%
  NUCLEATED RED BLOOD CELLS: 0 /100WBC
  PLATELET COUNT: 1186.67 x10E3/uL
  ALANINE AMINOTRANSFERASE: 50.17 u/L
  ALBUMIN: 4.07 G/DL
  ALKALINE PHOSPHATASE: 367.5 u/L
  ASPARTATE AMINOTRANSFERASE: 81.67 u/L
  BLOOD UREA NITROGEN: 16.17 mg/dL
  CARBON DIOXIDE: 32.33 mmol/L
  CHLORIDE: 101.5 MEQ/L
  CHOLESTEROL: 65.33 mg/dL
  CREATINE PHOSPHOKINASE: 255.33 u/L
  CREATININE: 0.17 mg/dL
  GLUCOSE: 139.33 mg/dL
  LACTATE DEHYDROGENASE: 95 u/L
  LIPASE: 10.5 u/L
  PHOSPHORUS: 10.38 mg/dL
  POTASSIUM: 6.11 MEQ/L
  SODIUM: 145.55 MEQ/L
  TOTAL BILIRUBIN: 0.17 mg/dL
  TOTAL PROTEIN: 5.98 G/DL
  URIC ACID: 0.93 mg/dL
[3]
  ABSOLUTE BASOPHIL: 0 CELLS/uL
  ABSOLUTE EOSINOPHIL: 0 CELLS/uL
  ABSOLUTE LYMPHOCYTE: 13989.67 CELLS/uL
  ABSOLUTE MONOCYTE: 387.67 CELLS/uL
  ABSOLUTE SEGMENTED NEUTROPHIL: 2189.33 CELLS/uL
  BASOPHIL: 0%
  EOSINOPHIL: 0%
  ERYTHROCYTE COUNT: 5.22 x10E6/uL
  HEMATOCRIT: 34.5%
  HEMOGLOBIN: 13.43 G/DL
  LEUKOCYTE COUNT: 16.57 x10E3/uL
  LYMPHOCYTE: 84.33%
  MEAN CORPUSCULAR HEMOGLOBIN: 25.77 pg
  MEAN CORPUSCULAR HEMOGLOBIN CONCENTRATION: 38.97 G/DL
  MEAN CORPUSCULAR VOLUME: 66.17 fL
  MONOCYTE: 2.33%
  NEUTROPHIL: 13.33%
  NUCLEATED RED BLOOD CELLS: 0 /100WBC
  PLATELET COUNT: 1263.33 x10E3/uL
  ALANINE AMINOTRANSFERASE: 47.33 u/L
  ALBUMIN: 3.93 G/DL
  ALKALINE PHOSPHATASE: 317.67 u/L
  ASPARTATE AMINOTRANSFERASE: 97 u/L
  BLOOD UREA NITROGEN: 16.33 mg/dL
  CARBON DIOXIDE: 22 mmol/L
  CHLORIDE: 103 MEQ/L
  CHOLESTEROL: 59.67 mg/dL
  CREATINE PHOSPHOKINASE: 763 u/L
  CREATININE: 0.18 mg/dL
  GLUCOSE: 187 mg/dL
  LACTATE DEHYDROGENASE: 544.33 u/L
  LIPASE: 9 u/L
  PHOSPHORUS: 11.9 mg/dL
  POTASSIUM: 5.79 MEQ/L
  SODIUM: 142.7 MEQ/L
  TOTAL BILIRUBIN: 0.17 mg/dL
  TOTAL PROTEIN: 5.73 G/DL
  URIC ACID: 1.7 mg/dL
